In ChEMBL document CHEMBL1201862, “PubChem BioAssay data set” (2004):
Active and inactive are the calls of the source. Cut-off read from the data, not from the text of the source, for most assays here: actives have a measured AC50 and inactives only a lower limit.

Key:
[1] = PAX5 cellular inhibition readout – cell-based, plate reader, dry powder samples, selectivity assay for PAX8 inhibitor project, dose response (AID 743047); assay type: functional;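 note: HEK293 cells carrying a Pax5 driven CD19 promoter luciferase reporter; potency of inhibitors that lower reporter luminescence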
[2] = IGROV1 cell killing – plate reader, dry powder samples, PAX8 inhibitor project, dose response (AID 743043); assay type: functional, cell-based; details: IGROV-1
[3] = OVCAR-3 cell viability loss – plate reader, dry powder samples, PAX8 inhibitor project, dose response (AID 743044); assay type: functional, cell-based
[4] = OVCAR4 cell viability loss – plate reader, dry powder, SA11, cytotoxicity control for PAX8 inhibitor project, dose response (AID 743150); assay type: functional, cell-based; details: OVCAR-4
[5] = COV434 cell viability loss – plate reader, dry powder, SA7, cytotoxicity control for PAX8 inhibitor project, dose response (AID 743145); assay type: functional, cell-based
[6] = PAX8-dependent cell viability loss – plate reader, dry powder, dose response (AID 743049); assay type: functional, cell-based
[7] = OVCAR8 cell viability loss – plate reader, dry powder samples, PAX8 project, dose response (AID 743197); assay type: functional, cell-based; details: OVCAR-8
[8] = inhibitors acting on PAX2 in cells – cell-based, plate reader, dry powder samples, selectivity assay for PAX8 inhibitor project, dose response (AID 743048); assay type: functional;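 note: HEK293 cells carrying a WT1 promoter luciferase reporter driven by expressed Pax2; potency is for inhibition of Pax2 driven reporter signal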
Paired box protein Pax-8 = Paired box protein Pax-8 (Homo sapiens, UniProt Q06710); assay: PAX8 transcriptional activity inhibition in RMG-I – RMG-I cells, luciferase, cherry-pick, dose response (AID 687027); assay type: functional, cell-based;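 note: luciferase reporter driven by Pax8 target thyroperoxidase promoter measured by SteadyGlo luminescence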
[9] = COV362 cell viability loss – plate reader, dry powder, SA12, cytotoxicity control for PAX8 inhibitor project, dose response (AID 743144); assay type: functional, cell-based
[10] = OV-90 cell viability loss – plate reader, dry powder, SA8, PAX8 inhibitor project, dose response (AID 743149); assay type: functional, cell-based
[11] = HEK293 Cytotoxicity Assay Measured in Cell-Based System Using Plate Reader - 7071-01_Inhibitor_Dose_CherryPick_Activity_Set2.; assay type: functional
HEK293 = assay: viability loss in HEK293T cells – cell-based, ATP luminescence, cherry-pick samples, cytotoxicity control, dose response (AID 687005); assay type: functional; details: Homo sapiens;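 note: cells exposed to compound for 48 hours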
[12] = A2780 cell killing – plate reader, dry powder samples, cytotoxicity control, dose response (AID 743046); assay type: functional, cell-based
Transthyretin = Transthyretin (Homo sapiens, UniProt P02766); assay: Luminescence-based cell-based high throughput dose response assay to identify activators of Transthyretin (TTR) transcription.; assay type: functional
[13] = biological target: T1, DNA repair and recombination protein RAD54-like (Homo sapiens, UniProt Q92698); assay: RAD54 Holliday junction migration blockers – biochemical, fluorescence, cherry-picked samples, dose series, confirmation (AID 651657); assay type: functional
T1 sequence (Q92698 whole entry): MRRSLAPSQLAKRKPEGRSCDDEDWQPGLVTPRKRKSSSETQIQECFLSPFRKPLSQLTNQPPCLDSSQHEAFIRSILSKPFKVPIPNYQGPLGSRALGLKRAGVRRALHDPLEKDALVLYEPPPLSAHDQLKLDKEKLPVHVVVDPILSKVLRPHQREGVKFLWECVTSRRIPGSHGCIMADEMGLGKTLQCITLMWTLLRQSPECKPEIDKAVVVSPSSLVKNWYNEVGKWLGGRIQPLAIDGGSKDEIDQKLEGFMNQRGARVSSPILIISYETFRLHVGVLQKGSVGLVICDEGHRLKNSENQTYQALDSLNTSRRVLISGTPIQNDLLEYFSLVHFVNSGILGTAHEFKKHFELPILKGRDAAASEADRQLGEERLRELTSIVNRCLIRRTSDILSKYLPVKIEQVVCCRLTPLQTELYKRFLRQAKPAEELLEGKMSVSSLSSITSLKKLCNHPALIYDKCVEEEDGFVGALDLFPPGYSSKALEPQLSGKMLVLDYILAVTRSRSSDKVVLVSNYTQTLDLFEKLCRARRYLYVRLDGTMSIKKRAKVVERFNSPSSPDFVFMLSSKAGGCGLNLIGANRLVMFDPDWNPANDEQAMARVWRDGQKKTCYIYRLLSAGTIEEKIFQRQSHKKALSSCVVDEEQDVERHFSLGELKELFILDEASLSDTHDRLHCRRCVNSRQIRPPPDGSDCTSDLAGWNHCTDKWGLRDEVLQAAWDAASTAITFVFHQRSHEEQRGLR

[14] = biological target: T2, DNA repair protein RAD52 homolog (Homo sapiens, UniProt P43351); assay type: functional, biochemical
T2 sequence (P43351 whole entry): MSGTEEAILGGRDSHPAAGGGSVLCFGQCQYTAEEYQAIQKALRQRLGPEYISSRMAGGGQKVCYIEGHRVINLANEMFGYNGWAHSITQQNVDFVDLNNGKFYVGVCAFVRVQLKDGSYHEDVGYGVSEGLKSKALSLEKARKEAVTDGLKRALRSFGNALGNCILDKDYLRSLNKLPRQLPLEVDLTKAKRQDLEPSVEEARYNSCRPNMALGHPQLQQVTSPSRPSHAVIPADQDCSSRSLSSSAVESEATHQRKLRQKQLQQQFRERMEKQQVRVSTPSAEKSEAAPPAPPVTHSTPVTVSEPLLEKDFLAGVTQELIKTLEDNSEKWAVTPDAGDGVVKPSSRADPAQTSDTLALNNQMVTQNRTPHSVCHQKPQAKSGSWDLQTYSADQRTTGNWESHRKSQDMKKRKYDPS

INS1 = assay: INS-1E survival protection against cytokine death – cell-based, luminescence, retest, dose response (AID 449756); assay type: functional; details: Rattus norvegicus;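 note: cell death triggered by IL-1 beta plus TNF-alpha plus IFN-gamma mixture; protective hits raise ATP signal compared with cytokine alone wells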
[15] = biological target: NAD-dependent protein deacylase sirtuin-5, mitochondrial (Homo sapiens, UniProt Q9NXA8); assay: sirtuin-5 deacylation blockers, concentration series – biochemical, fluorescence imaging, cherry-pick, set 5, dose response (AID 720591);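 note: desuccinylation of succinyl peptide AMC substrate read as fluorescence after trypsin release; potency of inhibitors that lower fluorescence and may act on trypsin instead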
[16] = viability loss in HEK293 cells – cell-based, plate reader, cherry-picked samples, cytotoxicity control, dose response (AID 743446); assay type: functional
[17] = blockers of bursicon-stimulated LGR2 cAMP reporter – cell-based, HEK293, CRE-luciferase reporter, cherry pick, set 2, dose response (AID 743343); assay type: functional;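 note: transfected cells were stimulated with diluted bursicon conditioned medium after compound addition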
[18] = blockade of melanocortin 4 receptor signaling – cell-based, plate reader, cherry pick, counter-screen for LGR2 antagonist project, dose response (AID 743444); assay type: functional;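 note: transfected HEK 293 cells stimulated with alpha-MSH peptide; potency of inhibitors of the alpha-MSH evoked signal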
[19] = toxicity toward HepG2 liver cells – cell-based, plate reader, cherry-pick, antagonist series, cytotoxicity control, dose response (AID 743416); assay type: functional
[20] = A549 cell cytotoxicity, dose response, cytotoxicity control, plate reader, cherry-pick, antagonist series (AID 743412); assay type: functional, cell-based
[21] = viability loss in HepG2 hepatoma cells – cell-based, ATP luminescence, cherry-pick, activator set 2, cytotoxicity control, dose response (AID 1053143); assay type: functional
[22] = biological target: Potassium channel subfamily K member 3 (Homo sapiens, UniProt O14649); assay: inhibition of human KCNK3 channel flux – CHO cells, FluxOR thallium flux, SAR follow-up (AID 652212); assay type: functional
[23] = biological target: Potassium channel subfamily K member 9 (Homo sapiens, UniProt Q9NPC2); assay: KCNK9 flux blockade, concentration-response – cell-based, FluxOR thallium flux, selectivity assay for TASK1 inhibitor project, SAR follow-up (AID 652211); assay type: functional;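 note: potency is for inhibitors of the channel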
Chain of Potassium channel subfamily K member 9 (Q9NPC2 whole entry): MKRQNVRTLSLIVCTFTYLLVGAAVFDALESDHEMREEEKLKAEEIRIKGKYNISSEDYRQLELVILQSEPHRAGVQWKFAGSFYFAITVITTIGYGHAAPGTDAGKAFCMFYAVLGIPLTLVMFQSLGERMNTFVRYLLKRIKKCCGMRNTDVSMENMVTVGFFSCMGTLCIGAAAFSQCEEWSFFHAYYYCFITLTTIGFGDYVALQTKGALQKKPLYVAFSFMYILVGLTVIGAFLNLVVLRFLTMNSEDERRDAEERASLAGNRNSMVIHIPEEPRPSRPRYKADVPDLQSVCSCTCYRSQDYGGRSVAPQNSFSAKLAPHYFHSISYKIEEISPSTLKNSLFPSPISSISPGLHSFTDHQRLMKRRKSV

Chain of Paired box protein Pax-8 (Q06710 whole entry): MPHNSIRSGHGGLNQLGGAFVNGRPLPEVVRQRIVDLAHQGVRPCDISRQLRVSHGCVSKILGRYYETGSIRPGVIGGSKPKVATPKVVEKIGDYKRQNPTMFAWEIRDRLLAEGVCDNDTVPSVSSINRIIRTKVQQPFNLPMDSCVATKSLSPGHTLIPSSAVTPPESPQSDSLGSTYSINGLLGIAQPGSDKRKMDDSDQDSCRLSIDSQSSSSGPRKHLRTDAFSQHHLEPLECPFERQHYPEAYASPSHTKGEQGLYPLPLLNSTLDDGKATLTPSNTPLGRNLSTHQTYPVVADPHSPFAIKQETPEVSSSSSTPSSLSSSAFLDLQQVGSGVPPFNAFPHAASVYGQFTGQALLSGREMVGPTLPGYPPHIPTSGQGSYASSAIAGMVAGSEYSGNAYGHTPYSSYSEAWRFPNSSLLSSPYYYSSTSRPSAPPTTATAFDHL
Chain of Potassium channel subfamily K member 3 (O14649 whole entry): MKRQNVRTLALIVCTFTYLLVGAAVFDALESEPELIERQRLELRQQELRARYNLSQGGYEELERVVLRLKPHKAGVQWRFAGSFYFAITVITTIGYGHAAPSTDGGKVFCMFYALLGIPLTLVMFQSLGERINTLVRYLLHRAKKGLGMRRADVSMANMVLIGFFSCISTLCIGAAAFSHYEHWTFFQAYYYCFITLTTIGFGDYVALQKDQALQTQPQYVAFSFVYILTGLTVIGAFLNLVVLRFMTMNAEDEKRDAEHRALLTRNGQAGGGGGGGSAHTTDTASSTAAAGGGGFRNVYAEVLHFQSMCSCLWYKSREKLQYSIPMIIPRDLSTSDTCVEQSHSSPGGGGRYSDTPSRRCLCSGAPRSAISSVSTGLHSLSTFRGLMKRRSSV
Chain of NAD-dependent protein deacylase sirtuin-5, mitochondrial (Q9NXA8 whole entry): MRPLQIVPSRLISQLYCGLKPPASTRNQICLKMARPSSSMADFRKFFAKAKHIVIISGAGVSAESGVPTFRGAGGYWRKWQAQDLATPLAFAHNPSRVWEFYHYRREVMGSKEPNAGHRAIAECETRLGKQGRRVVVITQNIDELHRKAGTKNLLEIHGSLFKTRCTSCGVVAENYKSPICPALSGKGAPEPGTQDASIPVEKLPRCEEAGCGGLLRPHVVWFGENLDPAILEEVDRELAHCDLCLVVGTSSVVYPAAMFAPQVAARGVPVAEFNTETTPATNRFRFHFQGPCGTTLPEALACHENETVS

COc1ccc(CN(C)C[C@H]2OCCCC[C@H](C)Oc3ccc(NC(=O)Nc4ccc(C(F)(F)F)cc4)cc3C(=O)N([C@@H](C)CO)C[C@H]2C)cc1
AC50 [1]: > 70 µM (inactive) | AC50 [2]: 25.1 µM (active) | AC50 [3]: 22.4 µM (active) | AC50 [4]: 40.5 µM (active) | AC50 [5]: 34.4 µM (active) | AC50 [6]: 14.4 µM (active) | AC50 [7]: 22 µM (active) | AC50 [8]: 31.6 µM (active) | AC50 (Paired box protein Pax-8): 5.98 µM (active) | AC50 [9]: > 70 µM (inactive) | AC50 [10]: 33.7 µM (active)

CCS(=O)(=O)N1CCCCN2[C@H](C1)[C@@H](c1ccc(-c3ccc(C#N)cc3)cc1)[C@@H]2CO
AC50 [11]: 18.6 µM (active) | AC50 (HEK293): 18.6 µM (active)

C[C@H](CO)N1C[C@H](C)[C@H](CN(C)Cc2ccc(C(F)(F)F)cc2)OCCCC[C@H](C)Oc2ccc(NC(=O)Nc3ccccc3)cc2C1=O
AC50 [12]: 11.8 µM (active) | AC50 [3]: 27.6 µM (active) | AC50 [7]: 30.7 µM (active) | AC50 (Paired box protein Pax-8): 8.44 µM (active)

COc1ccc(CCNc2c3ccccc3nc3ccccc23)cc1OC
EC50 (Transthyretin): > 167 µM (inactive) | AC50 [13]: 7.87 µM (active) | AC50 [14]: 6.38 µM (active) | AC50 (INS1): 4.5 µM (active)

O=C(Cn1cnc(S(=O)(=O)N2CCCC2)c1)Nc1cccc(Br)c1
AC50 [15]: > 30 µM (inactive)

NC(=O)c1ccsc1NC(=O)c1ccc(N2CCCC2=O)cc1
AC50 [16]: > 52 µM (inactive) | AC50 [17]: 10.5 µM (active) | AC50 [18]: 16.5 µM (active) | AC50 [19]: > 52 µM (inactive) | AC50 [20]: 50.9 µM (active)

O=C(Nc1ccc2c(c1)CCC2)Nc1ccccc1Cl
AC50 [21]: 26 µM (active)

CCOc1ccccc1NC(=O)c1cccc(NC(=O)c2ccccc2Cl)c1
IC50 [22]: 0.084 µM (active) | IC50 [23]: 2.63 µM (active)
